For orientation: inhibition means how much of the control response was suppressed. A lower inhibition goes with a response near the control. What is called Ki is the dissociation constant of the complex between target and ligand, obtained from inhibition or displacement. High values mean a looser hold on the target, low ones a stronger hold on the target.

The target in test [1] is T1, GABAA α5/β3/γ2 (Homo sapiens (Human), UniProt P18507+P31644). In words: Functional assay (PatchXpress automated patch-clamp), α5 subtype. In kind it is cell-based. Conditions: % change of GABA EC20 response; compound 1 μM; HEK293 cells. From the text: (§1) GABAA α5/β3/γ2 HEK293 cell line was used throughout the functional assay in PatchXpress (Molecular Devices), the automated patch-clamp system. Cells stably expressing the appropriate GABAA subtype (α5/β3/γ2, α1/β3/γ2, α2/β3/γ2 or α3/β3/γ2) were dissociated from poly-D-lysine treated tissue culture flasks using a mixture of one part TrypLE (Invitrogen, cat #12604): one part Dulbecco's Phosphate Buffered Saline (Invitrogen, cat #14190). The dissociated cells were re-suspended in growth media (D-MEM/F-12 media (Invitrogen, cat #11320) supplemented with 10% (v/v) Foetal Bovine Serum (Invitrogen, cat #10082) and 1% (v/v) non-essential amino acids (Invitrogen, cat #11140)) and allowed to recover for one hour at 37° C. in a humidified incubator with 5% CO2. At the end of the recovery period cells were centrifuged at 1,000 rpm for two minutes and the resulting pellet re-suspended in external solution (in mM; 137 NaCl, 4 KCl, 10 HEPES, 1.8 CaCl2, 1 MgCl2, 10 glucose, pH set to 7.35 with NaOH). Cells were counted and diluted to 2.5×10^6/ml in external solution. The patch-clamp assay protocol involved determination of current amplitude with control applications of GABA EC20 containing concentration-matched DMSO (0.3% v/v), then pre-incubation of the test compound for one minute prior to the addition of the same compound diluted with the GABA EC20. Compound and/or GABA was applied for five seconds, with two minute wash periods between applications. No wash period was present at the end of the compound pre-application stage. The internal solution comprised (in mM) 90 KCl, 50 KF, 11 EGTA, 10 HEPES, 1 MgCl2, 2 Mg-ATP, the pH was set to 7.35 with KOH and the holding potential was −60 mV. Compounds were assayed at a concentration of 1 μM.
(In patch-clamp work, channel activity is measured electrically.)

For test [2], the target named is T1, GABAA α5/β3/γ2. Kind of test: Binding assay (Scintillation Proximity Assay, [3H]-Ro15-1788). Conditions: membranes of HEK293 cells expressing GABAA α5/β3/γ2. Here is the method: The GABAAα5/β3/γ2 protein used for the Scintillation Proximity Assay was derived from membranes produced from HEK293 GABAA α5/β3/γ2 expressing HEK293 cell line. HEK293 GABAA α5/β3/γ2 expressing HEK293 cell line was cultured, then harvested and centrifuged the cells. Membranes were produced by homogenization of the cell pellet with a tissue homogenizer. The resulting homogenate was centrifuged at 48,000 g for 30 minutes, re-suspended and washed twice with 10 mM potassium phosphate buffer, pH 7.4. Final resuspension of membranes took place in buffer containing 10 mM potassium phosphate and 100 mM KCl.
For assay, test compound (50×) was added 0.5 μl per well to a white-walled clear-bottomed 384-well plate.
Full signal controls were prepared by the addition of 0.5 μl of DMSO to the appropriate wells. Mixture of 10 μl of protein and 10 μl of PVT-WGA beads (0.2 mg/well) were added to the plate. Both protein and bead were diluted to the desired concentration with 10 mM potassium phosphate, pH 7.4, containing 100 mM KCl. The plate was pre-incubated for 30 minutes at room temperature with shaking before initiation of the reaction by the addition of radioligand. 5 μl of [^3H]-Ro15-1788 was added at a concentration of 30 nM (5×) and the plates sealed. The reaction mix was incubated at room temperature overnight with gentle agitation on a plate shaker. The final DMSO concentration for all phases of the screening was 2% (v/v). At the end of the overnight incubation, the plates were centrifuged for two minutes at 1,000 rpm prior to reading on a Perkin Elmer Microbeta.
Concentration-response testing was performed in duplicate and the percent effect calculated for each replicate data point. The raw data was entered in Activity Base and the curves were fitted to the mean data using Excel and XL Fit, and shown as Ki.
For orientation: Scintillation proximity formats need no separation of bound from free tracer.

In the next test the target is GABAA α1/β3/γ2 (Homo sapiens (Human), UniProt P14867+P18507). Kind of test: Functional assay (PatchXpress automated patch-clamp), α1 subtype. In kind it is cell-based. Conditions: % change of GABA EC20 response; compound 1 μM; HEK293 cells.
Description: as §1

The test system of the next test is Lister Hooded rat. In words: Rat Novel Object Recognition test. The class given is in vivo. Conditions: 20 mg/kg p.o., 30 min prior to T1 and T2; 24 hr delay. From the text: NOR (Novel Object Recognition test) is a two-trial spontaneous test of visual recognition memory that relies on the animal's natural tendency to explore novelty (Behav Brain Res, 1998, 31(1): pp. 47-59). Variation of the inter-trial interval (ITI) between acquisition (T1) and retention trials (T2) may be used to investigate either deficits or improvements in memory. A temporal performance deficit can be induced by increasing the ITI (approximately 24 hr), such that exploration of both objects in T2 is similar, enabling the pro-cognitive abilities of novel compounds to be evaluated.
Male, Lister Hooded rat (228-273 g at start of study; Harlan UK) was used.
Habituation to the grey, matt perspex NOR box twice a day, on two consecutive days, prior to testing. Each habituation session, consisted of a 3 min exposure to the empty test box (46×30×45 cm), followed by 1 min in the side annex (13×30×45 cm), and then a further 3 min in the test area. […]
Experimental protocol tests for improvement in attention/recognition memory via reversal of a 24 h delay-induced deficit in NOR. […] All performance measures were determined for each individual animal before statistical handling.
The T1 score, d1 and d2 index were analysed using 2-way ANOVA (treatment×object) followed by planned comparisons post-hoc LSD using single measure parametric analysis, based on least square (predicted) means in InVivoStat, UK.

T1 sequence (P31644 32-462): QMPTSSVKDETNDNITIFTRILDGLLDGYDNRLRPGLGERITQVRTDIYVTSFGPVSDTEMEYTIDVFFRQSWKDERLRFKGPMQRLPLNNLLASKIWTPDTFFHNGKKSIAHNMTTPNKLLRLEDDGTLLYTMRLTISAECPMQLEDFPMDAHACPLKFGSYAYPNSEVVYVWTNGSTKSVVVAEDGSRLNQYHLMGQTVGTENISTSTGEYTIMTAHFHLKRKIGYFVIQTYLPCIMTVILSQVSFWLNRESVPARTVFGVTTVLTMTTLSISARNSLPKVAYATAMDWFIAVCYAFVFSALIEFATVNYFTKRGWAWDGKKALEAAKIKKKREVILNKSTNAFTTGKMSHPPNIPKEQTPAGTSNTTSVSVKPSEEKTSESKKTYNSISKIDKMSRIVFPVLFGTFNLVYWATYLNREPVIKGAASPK
T1 sequence (P28472 26-473 partner): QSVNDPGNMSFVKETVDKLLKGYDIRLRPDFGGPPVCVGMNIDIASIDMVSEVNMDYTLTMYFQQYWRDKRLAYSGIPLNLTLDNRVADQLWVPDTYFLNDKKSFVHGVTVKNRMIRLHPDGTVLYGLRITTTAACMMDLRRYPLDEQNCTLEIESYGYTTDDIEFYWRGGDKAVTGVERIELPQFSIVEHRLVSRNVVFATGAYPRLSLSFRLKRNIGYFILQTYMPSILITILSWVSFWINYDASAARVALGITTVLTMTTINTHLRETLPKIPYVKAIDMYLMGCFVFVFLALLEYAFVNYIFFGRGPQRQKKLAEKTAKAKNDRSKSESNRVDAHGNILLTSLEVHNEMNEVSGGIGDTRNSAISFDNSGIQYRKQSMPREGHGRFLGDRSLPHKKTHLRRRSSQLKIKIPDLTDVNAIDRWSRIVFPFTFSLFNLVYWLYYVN
T1 sequence (P18507 40-475): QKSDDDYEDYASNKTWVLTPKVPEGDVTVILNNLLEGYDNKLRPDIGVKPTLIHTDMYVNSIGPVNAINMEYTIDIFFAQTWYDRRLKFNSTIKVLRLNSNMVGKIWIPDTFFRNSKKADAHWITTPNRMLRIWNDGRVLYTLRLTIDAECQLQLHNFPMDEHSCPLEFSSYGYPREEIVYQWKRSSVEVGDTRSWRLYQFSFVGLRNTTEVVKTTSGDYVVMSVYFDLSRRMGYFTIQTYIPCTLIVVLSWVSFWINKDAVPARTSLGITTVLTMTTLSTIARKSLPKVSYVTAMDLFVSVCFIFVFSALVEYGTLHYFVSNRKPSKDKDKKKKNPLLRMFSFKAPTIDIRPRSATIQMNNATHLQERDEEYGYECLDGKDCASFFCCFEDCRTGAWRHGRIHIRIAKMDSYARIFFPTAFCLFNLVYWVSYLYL
GABAA α1/β3/γ2, sequence (P14867 28-456): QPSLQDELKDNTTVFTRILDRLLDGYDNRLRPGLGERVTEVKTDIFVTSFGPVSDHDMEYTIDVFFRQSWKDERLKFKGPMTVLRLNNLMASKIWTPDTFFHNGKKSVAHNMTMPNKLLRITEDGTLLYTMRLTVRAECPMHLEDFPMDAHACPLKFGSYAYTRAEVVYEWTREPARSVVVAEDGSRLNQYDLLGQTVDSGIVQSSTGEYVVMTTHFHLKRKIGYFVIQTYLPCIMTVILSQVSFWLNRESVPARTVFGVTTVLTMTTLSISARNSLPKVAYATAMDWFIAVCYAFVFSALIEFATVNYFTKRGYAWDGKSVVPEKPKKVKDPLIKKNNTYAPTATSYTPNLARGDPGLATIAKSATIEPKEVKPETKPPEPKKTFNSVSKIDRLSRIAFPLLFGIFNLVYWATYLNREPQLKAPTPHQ
GABAA α1/β3/γ2, sequence (P28472 26-473 partner): as the sequence (P28472 26-473 partner) above
GABAA α1/β3/γ2, sequence (P18507 40-475): as the sequence (P18507 40-475) above

Turning to `Cc1cc(Nc2cc3c(cc2Cl)N(C)C(=O)CO3)nc2c1ncn2CC1CC1` [Example 160, 6-Chloro-7-((3-(cyclopropylmethyl)-7-methyl-3H-imidazo[4,5-b]pyridin-5-yl)amino)-4-methyl-2H-benzo[b][1,4]oxazin-3(4H)-one], the inhibition at 1 µM stood at 42.5% on GABAA α5/β3/γ2 [1] and 9.8% against GABAA α1/β3/γ2. Also, the Ki on GABAA α5/β3/γ2 [2] worked out at 0.9 nM. In addition, the “d2 index score (performance in NOR)” value in the test on Lister Hooded rat is recorded as “significantly improved performance”.

For the origin of these results see patent US10016439B2, “Fused imidazole compounds” (ONO PHARMACEUTICAL CO., LTD., priority 2014, dated 2018).
